Read-outs that look alike come from different tables or passages of the source.
Key:
[1] = tested on: human vaginal epithelial cells of the A-431 cell line; format: cell-based
Procedure: Test of totarol impact on the human vaginal epithelial cells of the A-431 cell line (ATCC® The study was carried out using the following test: Annexin-V-Fluos (Roche, Mannheim, Germany), during incubation for 2, 8 and 24 hours, under in vitro conditions, according to the instructions of the test's manufacturer. The totarol sample was prepared by dissolution of 3 mg of totarol in 3 ml of 100% DMI.
The cultivation time for the A-431 cell line was 20 days. The culture was carried out at a temperature of 37° C. in an atmosphere containing 10% CO2, on a DMEM culture medium (Institute of Immunology and Experimental Therapy PAS [IITD PAN], Wroclaw), with an addition of 10% of foetal bovine serum (FBS, Sigma-Aldrich). The culture fluid were being replaced regularly every 48 hours. After achieving a decantable growth or the so-called “monolayer”, the cells were passaged using (for approx. 10 min) 0.25% trypsin (Sigma-Aldrich). Then, the obtained tissue line was passed to 24-well plates (TPP), adjusting their densities to the value of 5×10^5 per well. The tissue culture of the studied lines was carried out for 3 next days on the surface of sterile microscope slides placed on the bottom of a 24-well plate, until a decantable growth was obtained on the surface of the microscope slides. After obtaining the so-called “monolayer”, the cells were washed with PBS without Ca^2+ and Mg^2+ ions (IITD PAN, Wroclaw), and poured with 700 µl of fresh DMEM medium with 10% FBS, together with 300 μl of properly prepared totarol. • Negative control: 1000 μl of fresh DMEM medium with 10% FBS. • Solvent control: 700 μl of fresh DMEM medium with 10% FBS+300 μl of DMI solvent. • Necrosis positive control: 900 μl of fresh DMEM medium with 10% FBS+100 μl H2O2 (30%). The proper examination using the Annexin-V-Fluos test causes green staining of apoptotic cells. […] This dye has an ability to penetrate the cell's interior freely only through a damaged cellular membrane, staining the interior red. In the case of a lack of damages of the cellular membrane, propidium iodide remains on its surface, forming a characteristic red “halo” around the cell. After a corresponding study time, i.e. 2, 8, and 24 hours, the culture fluid was removed, the content was washed with PBS (pre-heated to a temperature of 37° C.) twice. Then, 100 μl of the fluorescent stains mixture including in the Annexin-V-Fluos (Roche) kit were applied on the surface of each microscope slide (placed in a culture well) and additionally, Hoechst stain was used (cellular DNA staining). The staining procedure was carried out according to the manufacturer's recommendations. The culture together with the stains applied onto it were incubated at room temperature for 20 min. The intensity of light emitted by the cells stained with the individual stains was observed using a fluorescent microscope at the wavelength of 494-520 nm, using 400× magnification. The cells were counted in five visual fields, and the results were averaged. The reliability of the tests carried out is confirmed by hydrogen peroxide used as a positive control, causing a distinct necrosis process already after 2 hours of incubation. Data analyses were carried out on the basis of the average number of cells from five visual fields in the individual times (2, 8, and 24 h). The results are presented in Table 6 and in the form of photographic documentation—FIGS. 1, 2, 3, 4.

Solubility in water = format: physicochemical

- Alive cells ([1]; human, 2 h, 0.3 mg/mL): 100
- Alive cells ([1]; human, 8 h, 0.3 mg/mL): 100
- Alive cells ([1]; human, 24 h, 0.3 mg/mL): 100
- solubility in water (Solubility in water): complete lack of solubility in water
Compound: CC(C)c1c(O)ccc2c1CC[C@H]1C(C)(C)CCC[C@]21C [Totarol, totarol]
- apoptosis and necrosis in epithelial cells, photographic documentation [1]: No apoptosis and necrosis
- apoptotic and necrotic impact on human vaginal epithelial A-431 cells [1]: lack of apoptotic and necrotic impact
- Apopt. cells ([1]; human, 2 h, 0.3 mg/mL): 0
- Necrot. cells ([1]; human, 2 h, 0.3 mg/mL): 0
- Apopt. cells ([1]; human, 8 h, 0.3 mg/mL): 0
- Necrot. cells ([1]; human, 8 h, 0.3 mg/mL): 0
- Apopt. cells ([1]; human, 24 h, 0.3 mg/mL): 0
- Necrot. Cells ([1]; human, 24 h, 0.3 mg/mL): 0
